Results: patent publication US9469645B2, “Compounds and compositions for the treatment of parasitic diseases” (Novartis AG, priority 2009, dated 2016)
pEC50: −log10 of the molar value.

Key:
W2 strain = test: parasite proliferation assay in infected red blood cells (SYBR Green I), W2 strain; assay type: cell-based; details: Erythrocyte
Excerpt: (§1) Compounds of the invention can be assayed to measure their capacity to inhibit proliferation of parasitemia in infected red blood cells. The proliferation is quantified by the addition of SYBR Green I (INVITROGEN)® dye which has a high affinity for double stranded DNA.

3D7 P. falciparum strain = test: parasite proliferation assay in infected red blood cells (SYBR Green I); assay type: cell-based, Plasmodium falciparum; details: Plasmodium falciparum, 3D7, Erythrocyte, 3D7 strain; read-out: EC50 3D7 strain
Excerpt: as §1
The following assay illustrates the invention without in any way limiting the scope of the invention. This parasite proliferation assay measures the increase in parasite DNA content using a DNA intercalating dye, SYBR Green®.
3D7 P. falciparum strain is grown in complete culturing media until parasitemia reaches 3% to 8% with O+ human erythrocytes. 20 μl of screening media is dispensed into 384 well assay plates. […] 10 μl of lysis buffer (saponin, triton-X, EDTA) containing a 10× solution of SYBR Green I® in RPMI media is dispensed into the plates. The plates are lidded and kept at room temperature overnight for the lysis of the infected red blood cells.

| SMILES | pEC50 (W2 strain) | pEC50 (3D7 P. falciparum strain) | pEC50 (W2 strain; Plasmodium falciparum) |
| --- | --- | --- | --- |
| Cc1ccc(Nc2c(-c3ccc(F)cc3)nc3n2CCN(C(=O)[C@@H](O)c2ccccc2)C3)cc1 [Compound 138] | 7.82 | 8.00 | – |
| Cc1ccc(Nc2c(-c3ccc(F)cc3)nc3n2CC(=O)N(CCN(C)C)C3(C)C)cc1F [Compound 681] | – | 6.57 | 6.71 |
| CC(C)(N)C(=O)N1CCn2c(nc(-c3ccc(F)cc3)c2Nc2ccc(F)cc2)C1 [Compound 3] | 7.60 | 7.70 | – |
| CC1(C)c2nc(-c3ccc(F)cc3)c(C(=O)Nc3ccc(F)cc3)n2CCN1C(=O)CN [Compound 708] | – | 6.09 | 5.95 |
| Cc1ccc(Nc2c(-c3ccc(F)cc3)nc3n2CCN(C(=O)C(C)(C)Nc2ccc(C)cc2)C3)cc1 [Compound 386] | 5.52 | 5.58 | – |
| Cc1cc(Nc2c(-c3ccc(F)cc3)nc3n2CCN(C(=O)CN)C3(C)C)ccc1Cl [Compound 659] | – | 5.36 | 5.28 |
| Cn1cc(CC(=O)N2CCn3c(nc(-c4ccc(F)cc4)c3Nc3ccc(Cl)c(F)c3)C2)c2ccccc21 [Compound 357] | 5.33 | 5.13 | – |
| CC(C)(N)C(=O)N1CCn2c(nc(-c3c(F)cc(F)cc3F)c2Nc2ccc(F)cc2)C1 [Compound 12] | 5.53 | 5.13 | – |
| CC(C)(N)C(=O)N1CCn2c(nc(-c3ccc(F)cc3)c2Nc2cccc(OC(F)(F)F)c2)C1 [Compound 640] | – | 5.40 | 5.35 |
| CCCCC(=O)Nc1ccc(C[C@H](NC(=O)OC(C)(C)C)C(=O)N2CCn3c(nc(-c4cccc(F)c4)c3Nc3ccc(Cl)c(F)c3)C2)cc1 [Compound 252] | 6.20 | 5.52 | – |
| CC1(C)c2nc(-c3ccc(F)cc3)c(Sc3ccc(F)cc3)n2CCN1C(=O)CN [Compound 715] | – | 8.22 | 8.22 |
| CC(C)(C)CC(C)(C)Nc1c(-c2ccccc2C(F)(F)F)nc2ccccn12 [Compound 745] | – | 5.45 | 5.37 |
| CC(C)(N)C(=O)N1CCn2c(nc(-c3ccc(F)cc3)c2Nc2ccc(Cl)cc2)C1 [Compound 39] | 7.62 | 7.70 | – |
| Cc1ccc(-c2nc3n(c2Nc2ccc(F)cc2)CCN(C(=O)CN)C3)cc1 [Compound 52] | 5.47 | 5.50 | – |
| CCC(=O)Nc1ccc(C[C@H](NC(=O)OC(C)(C)C)C(=O)N2CCn3c(nc(-c4cccc(F)c4)c3Nc3ccc(Cl)c(F)c3)C2)cc1 [Compound 253] | 6.60 | 6.11 | – |
| Cc1cc(Nc2c(-c3cccc(F)c3)nc3n2CC(=O)N(CCCC(=O)O)C3(C)C)ccc1F [Compound 692, 4-(3-(4-fluoro-3-methylphenylamino)-2-(3-fluorophenyl)-8,8-dimethyl-6-oxo-5,6-dihydroimidazo[1,2-a]pyrazin-7(8H)-yl)butanoic acid] | – | 5.19 | 5.27 |
| Cc1ccc(Nc2c(-c3ccc(F)cc3)nc3n2CCN(C(=O)CNc2ccc(C)cc2C)C3)cc1 [Compound 384] | 6.05 | 6.33 | – |
| O=C(C1CNCCO1)N1CCn2c(nc(-c3ccc(F)cc3)c2Nc2ccc(Cl)c(F)c2)C1 (stereo not drawn) [Compound 367] | 6.83 | 6.72 | – |
| CC(C)(N)C(=O)N1CCn2c(nc(-c3ccc(F)cc3)c2Nc2ccc(F)c(C#N)c2)C1 [Compound 636] | – | 6.68 | 6.74 |

| SMILES | pEC50 (W2 strain) | pEC50 (3D7 P. falciparum strain) | pEC50 (W2 strain; Plasmodium falciparum) |
| --- | --- | --- | --- |
| CC(C)(C)CC(C)(C)Nc1c(-c2ccccc2-c2ccco2)nc2ccccn12 [Compound 747] | – | 5.65 | 5.35 |
| CC1(C)c2nc(-c3ccc(F)cc3)cn2CCN1C(=O)C(N)CCc1cccc(F)c1 (stereo not drawn) [Compound 701] | – | 5.08 | 5.13 |
| CC(C)(N)C(=O)N1CCn2c(nc(-c3ccc(F)cc3)c2Nc2cccc(F)c2)C1 [Compound 35] | 6.98 | 6.92 | – |
| CC1(C)c2nc(-c3ccc(F)cc3)c([S+]([O-])c3ccc(F)cc3)n2CCN1C(=O)CN (stereo not drawn) [Compound 720] | – | 7.15 | 7.16 |
| Cc1cc(Nc2c(-c3ccc(F)cc3)nc3n2C(C)(C)CN(C)C3)ccc1Cl [Compound 610] | – | 5.20 | 5.31 |
| CC(C)(C)CC(C)(C)Nc1c(-c2ccccc2Br)nc2ccccn12 [Compound 743] | – | 5.57 | 5.52 |
| Cc1ccc(Nc2c(-c3ccc(F)cc3)nc3n2CCN(C(=O)[C@H](N)CC(=O)O)C3)cc1 [Compound 287] | 5.14 | 5.36 | – |
| CC(C)(C)CC(C)(C)Nc1c(-c2ccccc2-c2cccs2)nc2ccccn12 [Compound 741] | – | 5.28 | 5.32 |
| CN[C@@H](Cc1ccccc1)C(=O)N1CCn2c(nc(-c3ccc(F)cc3)c2Nc2ccc(C)cc2)C1 [Compound 149] | 7.96 | 7.70 | – |
| Cc1ccc(Nc2c(-c3ccc(F)cc3)nc3n2CCN(C(=O)[C@@H](O)CC2CCCCC2)C3)cc1 [Compound 145] | 7.17 | 7.05 | – |
| Cc1ccc(Nc2c(-c3ccc(F)cc3)nc3n2CCN(C(=O)CC2CCCCO2)C3)cc1 (stereo not drawn) [Compound 216] | 6.61 | 6.52 | – |
| CCCNC(=O)C[C@H](N)C(=O)N1CCn2c(nc(-c3cccc(F)c3)c2Nc2ccc(Cl)c(F)c2)C1 [Compound 255] | 6.19 | 6.21 | – |
| CC(C)(N)C(=O)N1CCn2c(nc(-c3ccccc3)c2Nc2ccccc2)C1 [Compound 8] | 6.30 | 6.21 | – |
| CC(C)[C@@H](N)C(=O)N1CCn2c(nc(-c3ccc(F)cc3)c2Nc2ccc(Cl)c(F)c2)C1 [Compound 318] | 7.01 | 6.82 | – |
| CC1(C)c2nc(-c3ccc(F)cc3)c(NC3CCC3)n2CCN1C(=O)CN [Compound 671] | – | 5.89 | 5.96 |
| N#Cc1ccc(C[C@H](N)C(=O)N2CCn3c(nc(-c4ccc(F)cc4)c3Nc3ccc(Cl)c(F)c3)C2)cc1 [Compound 328] | 6.64 | 6.47 | – |
| Cc1ccc(Nc2c(-c3ccc(F)cc3)nc3n2CCN(C(=O)CC2CCOC2)C3)cc1 (stereo not drawn) [Compound 215] | 6.19 | 6.08 | – |
| CC(C)(N)C(=O)N1CCn2c(nc(C3CCCCC3)c2Nc2ccc(F)cc2)C1 [Compound 15] | 5.68 | 5.58 | – |
| NC1(C(=O)N2CCn3c(nc(-c4ccc(F)cc4)c3Nc3ccc(F)cc3)C2)CC1 [Compound 45] | 5.87 | 6.01 | – |

| SMILES | pEC50 (W2 strain) | pEC50 (3D7 P. falciparum strain) | pEC50 (W2 strain; Plasmodium falciparum) |
| --- | --- | --- | --- |
| CC(C)(N)C(=O)N1CCn2c(nc(-c3ccc(F)cc3)c2NC2CCCCC2)C1 [Compound 27] | 5.22 | 5.02 | – |
| CC1CC(Nc2c(-c3ccc(F)cc3)nc3n2CCN(C(=O)CN)C3(C)C)CC(C)(C)C1 (stereo not drawn) [Compound 666] | – | < 5.00 | 5.30 |
| Cc1ccc(Nc2c(-c3ccc(F)cc3)nc3n2CCN(C(=O)C(c2ccccc2)C2CCCC2)C3)cc1 (stereo not drawn) [Compound 226] | 6.46 | 6.32 | – |
| CC1(C)c2nc(-c3ccc(F)cc3)c(N3CCC(N4CCCCC4)CC3)n2CCN1C(=O)CN [Compound 669] | – | 5.40 | < 5.00 |
| CC(C)(N)C(=O)N1CCn2c(nc(-c3cccc(F)c3)c2Nc2ccc(Cl)c(F)c2)C1 [Compound 229] | 8.15 | 8.00 | – |
| Cc1ccc(Nc2c(-c3ccc(F)cc3)nc3n2CCN(C(=O)C[C@@H](N)Cc2cc(F)c(F)cc2F)C3)cc1 [Compound 172] | 7.06 | 7.00 | – |
| Cc1ccc(Nc2c(-c3ccc(F)cc3)nc3n2CCN(C(=O)C(C)(CO)CO)C3)cc1 [Compound 245] | 5.74 | 5.60 | – |
| O=C(CN1CC[C@H](F)C1)N1CCn2c(nc(-c3ccc(F)cc3)c2Nc2ccc(F)cc2)C1 [Compound 59] | 6.13 | 5.96 | – |
| Cc1ccc(Nc2c(-c3ccc(F)cc3)nc3n2CCN(C(=O)CC2CCNCC2)C3)cc1 [Compound 220] | 6.03 | 5.95 | – |
| CCN(CC)CCN1CCn2c(nc(-c3ccc(F)cc3)c2Nc2ccc(C)cc2)C1 [Compound 88] | 7.09 | 6.82 | – |
| CCCNC(=O)C[C@H](NC(=O)OC(C)(C)C)C(=O)N1CCn2c(nc(-c3ccc(F)cc3)c2Nc2ccc(C)cc2)C1 [Compound 186] | 5.59 | 5.25 | – |
| O=C([C@H]1CCCO1)N1CCn2c(nc(-c3ccc(F)cc3)c2Nc2ccc(Cl)c(F)c2)C1 [Compound 356] | 6.06 | 5.90 | – |
| Cc1ccc(Nc2c(-c3ccc(F)cc3)nc3n2CCN(C(=O)CNc2ccccc2)C3)cc1 [Compound 168] | 7.96 | 8.00 | – |
| CC1(C)c2nc(-c3ccc(F)cc3)c(Nc3ccc(F)cc3)n2CCN1C(=O)CNC(=O)CCc1ccccc1 [Compound 726] | – | 5.72 | 5.83 |
| CC1(C)c2nc(-c3ccc(F)cc3)c(Nc3cccc(C#N)c3)n2CCN1C(=O)CN [Compound 653] | – | 8.22 | 8.05 |
| Cc1ccc(Nc2c(-c3ccc(F)cc3)nc3n2CCN(C(=O)N2CCC(N(C)C)C2)C3)cc1 (stereo not drawn) [Example 251, (3-(dimethylamino)pyrrolidin-1-yl)(2-(4-fluorophenyl)-3-(p-tolylamino)-5,6-dihydroimidazo[1,2-a]pyrazin-7(8H)-yl)methanone] | 5.59 | 5.43 | – |
| Cc1ccc(N2Cc3nc(-c4ccc(F)cc4)c(N)n3CC2=O)cc1 [Compound 299] | 5.03 | < 5.06 | – |
| Cc1ccc(Nc2c(-c3ccc(F)cc3F)nc3n2CCN(C(=O)CN)C3)cc1 [Compound 387] | 7.10 | 6.96 | – |
| Cc1ccc(Nc2c(-c3ccc(F)cc3)nc3n2CCN(C(=O)c2cc(=O)[nH]c(=O)[nH]2)C3)cc1 [Compound 165] | 5.33 | < 4.99 | – |
